Measurements as given in the supplement of paper PMC10307832.

How the values were obtained:
Assay in all cases: relative viability (nuclei count vs DMSO), 5 days (fraction); higher = more cells survive
QS11 + Navitoclax = compound: C1CC2=C(C1)C=C(C=C2)OC3=NC(=C4C(=N3)N(C=N4)CC5=CC=C(C=C5)C6=CC=CC=C6)N[C@@H](CC7=CC=CC=C7)CO [QS11] + CC1(C)CCC(c2ccc(Cl)cc2)=C(CN2CCN(c3ccc(C(=O)NS(=O)(=O)c4ccc(N[C@H](CCN5CCOCC5)CSc5ccccc5)c(S(=O)(=O)C(F)(F)F)c4)cc3)CC2)C1 [Navitoclax] (partner 0.5 µM)
In short: (§1)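 Dosing by pin tool came one day after lung cancer cell lines were seeded in 1536-well plates, using either one drug or a fixed anchor-drug dose plus five library-drug doses (not always all listed) in √10 steps. After 5 days, nuclei were counted on 4× images. Relative viability is treated-well nuclei count divided by vehicle-well nuclei count, and values are medians of duplicate plates.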

AZ628 + Palbociclib = compound: CC1=C(C=C(C=C1)NC(=O)C2=CC(=CC=C2)C(C)(C)C#N)NC3=CC4=C(C=C3)N=CN(C4=O)C [AZ628] + CC(=O)c1c(C)c2cnc(Nc3ccc(N4CCNCC4)cn3)nc2n(C2CCCC2)c1=O [Palbociclib] (partner 0.5 µM)
In short: as §1

AZ628 + Navitoclax = compound: CC1=C(C=C(C=C1)NC(=O)C2=CC(=CC=C2)C(C)(C)C#N)NC3=CC4=C(C=C3)N=CN(C4=O)C [AZ628] + CC1(C)CCC(c2ccc(Cl)cc2)=C(CN2CCN(c3ccc(C(=O)NS(=O)(=O)c4ccc(N[C@H](CCN5CCOCC5)CSc5ccccc5)c(S(=O)(=O)C(F)(F)F)c4)cc3)CC2)C1 [Navitoclax] (partner 0.5 µM)
In short: as §1

[1] = compound: C[As](C)SC[C@H](NC(=O)CC[C@H](N)C(=O)O)C(=O)NCC(=O)O [Darinaparsin] + Nc1nc2[nH]cc(CCc3ccc(C(=O)N[C@@H](CCC(=O)O)C(=O)O)cc3)c2c(=O)[nH]1 [Pemetrexed] (partner 0.2 µM)
In short: as §1

| Cell Line | relative viability (QS11 + Navitoclax; first compound 0.08 µM) | relative viability (QS11 + Navitoclax; first compound 0.253 µM) | relative viability (QS11 + Navitoclax; first compound 0.8 µM) | relative viability (QS11 + Navitoclax; first compound 2.53 µM) | relative viability (QS11 + Navitoclax; first compound 8 µM) | relative viability (AZ628 + Palbociclib; first compound 0.08 µM) | relative viability (AZ628 + Palbociclib; first compound 0.253 µM) | relative viability (AZ628 + Palbociclib; first compound 0.8 µM) | relative viability (AZ628 + Palbociclib; first compound 2.53 µM) | relative viability (AZ628 + Palbociclib; first compound 8 µM) | relative viability (AZ628 + Navitoclax; first compound 0.08 µM) | relative viability (AZ628 + Navitoclax; first compound 0.253 µM) | relative viability (AZ628 + Navitoclax; first compound 0.8 µM) | relative viability (AZ628 + Navitoclax; first compound 2.53 µM) | relative viability (AZ628 + Navitoclax; first compound 8 µM) | relative viability ([1]; first compound 0.08 µM) | relative viability ([1]; first compound 0.8 µM) | relative viability ([1]; first compound 2.53 µM) | relative viability ([1]; first compound 8 µM) |
| --- | --- | --- | --- | --- | --- | --- | --- | --- | --- | --- | --- | --- | --- | --- | --- | --- | --- | --- | --- |
| UMC-11 | 0.293 | 0.308 | 0.298 | 0.424 | 0.54 | 0.405 | 0.299 | 0.347 | 0.324 | 0.292 | 0.311 | 0.378 | 0.334 | 0.313 | 0.418 | 0.884 | 0.863 | 0.778 | 0.878 |
| LCLC-103H |  |  |  |  |  | 0.478 | 0.48 | 0.44 | 0.314 | 0.417 |  |  |  |  |  | 0.466 | 0.422 | 0.448 | 0.422 |
| LU99A | 0.867 | 0.841 | 0.937 | 0.847 | 0.592 | 0.366 | 0.368 | 0.381 | 0.442 | 0.369 | 0.856 | 0.859 | 0.865 | 0.895 | 0.296 | 0.19 | 0.161 | 0.384 | 0.194 |
| LXF-289 | 0.98 | 0.948 | 0.715 | 0.859 | 0.619 | 0.617 | 0.658 | 0.592 | 0.621 | 0.44 | 0.941 | 0.875 | 0.87 | 0.942 | 0.568 | 0.888 | 0.962 | 0.894 | 0.965 |
| EPLC-272H | 1.13 | 1.17 | 1.15 | 1.08 | 1.36 | 0.32 | 0.345 | 0.292 | 0.317 | 0.25 | 1.02 | 1.04 | 1.24 | 1.1 | 0.709 | 0.319 | 0.292 | 0.321 | 0.293 |
| LOU-NH91 | 0.626 | 0.572 |  | 0.657 | 0.723 | 0.535 | 0.526 | 0.547 | 0.557 | 0.539 | 0.681 | 0.713 | 0.713 | 0.654 | 0.4 | 0.414 | 0.431 | 0.314 | 0.384 |
| HCC-44 | 0.943 | 0.93 | 0.666 | 0.792 | 0.718 | 1.01 | 0.942 | 0.96 | 0.958 | 1.15 | 0.966 | 1 | 0.996 | 1.06 | 0.874 | 0.7 | 0.607 | 0.669 | 0.721 |
| NCI-H1651 | 1.13 | 0.998 | 0.936 | 0.98 | 0.839 | 0.544 | 0.536 | 0.529 | 0.562 | 0.625 | 1.07 | 1.02 | 1.2 | 1.25 | 1.1 | 0.621 | 0.594 | 0.569 | 0.748 |
| NCI-H1915 | 0.816 | 0.805 |  | 0.865 | 0.868 | 0.398 | 0.392 | 0.316 | 0.316 | 0.205 | 0.764 | 0.768 | 0.79 | 0.689 | 0.584 | 0.495 | 0.446 | 0.494 | 0.662 |
| NCI-H2009 | 1.13 | 1.19 | 0.972 | 1.02 | 0.981 | 0.201 | 0.177 | 0.141 | 0.125 | 0.174 | 1.11 | 0.94 | 0.98 | 1.04 | 0.455 | 1.09 | 1.07 | 1 | 1.08 |
| COR-L 105 | 0.77 | 0.618 | 0.788 | 0.733 | 0.83 | 0.368 | 0.368 | 0.429 | 0.344 | 0.453 | 0.81 | 0.967 | 0.761 | 0.655 | 0.652 | 1.39 | 1.21 | 0.913 | 1.27 |
| ABC-1 |  |  |  |  |  | 0.795 | 0.586 | 0.5 | 0.884 | 0.712 |  |  |  |  |  |  |  |  |  |
| NCI-H1793 | 0.393 | 0.482 | 0.38 | 0.436 | 0.404 | 0.35 | 0.403 | 0.305 | 0.266 | 0.255 | 0.533 | 0.511 | 0.53 | 0.384 | 0.285 | 1.01 | 0.89 |  | 1.05 |
| NCI-H1792 |  | 0.744 | 0.5 | 0.6 | 0.479 | 0.66 | 0.632 | 0.52 | 0.558 | 0.388 | 0.682 | 0.619 | 0.545 | 0.591 | 0.44 | 1.14 | 0.829 |  | 0.921 |
| ChaGo-K-1 |  | 1.01 | 1.42 | 1.66 | 1.21 | 0.993 | 0.934 | 0.892 | 0.986 | 1.02 | 1.1 |  | 0.751 | 1.1 | 1.14 | 0.251 | 0.266 | 0.271 | 0.263 |
